{
  "source": "patent US5760001A",
  "about": "“Cytokine restraining agents and methods of use in pathologies and conditions associated with altered cytokine levels” (Trega Biosciences, Inc., priority 1995, dated 1998)",
  "key": {"TNF-α": {"system": "TNF-α", "test": "Reduction of LPS-induced TNF levels in mice (IP dosing)", "type": "in vivo", "settings": "30 μg/mouse IP before LPS 5 mg/kg IP; vs untreated control mice", "procedure": "Balb/c female mice weighing approximately 20 g were placed into two groups, a control group and a treated group. Five mg/kg of LPS in 0.9% saline was administered by intraperitoneal (IP) injection into the control mice. Mice in the treated group were first injected IP with 30 μg EX-2 or 150 μg EX-3 in saline, then, one mn after EX-2 or EX-3 was administered, the mice received LPS as described for the control group.\nBlood samples were collected from the orbital sinus of treated and control mice at various times up to four hr after LPS was administered. The plasma was separated by centrifugation at 3000×g for 5 min, then diluted with four volumes of 1× phosphate buffer saline (pH 7.4) containing 1% bovine serum albumin. A 100 μl sample of serum was assayed by ELISA for TNF-α (Genzyme; Cambridge Mass.).\nThe mean (±SEM) TNF-α level in six mice from each group was determined and the percent reduction in TNF levels was calculated."}, "IL-6": {"system": "IL-6", "test": "Reduction of LPS-induced interleukin-6 levels in mice", "type": "in vivo", "settings": "300 μg/mouse; LPS treated mice; vs untreated control mice", "procedure": "Balb/c mice were grouped and treated as described in Example III, above. Blood samples were obtained from the orbital sinus at various times up to six hr and serum was collected and diluted as described above. A 100 μl aliquot was assayed for IL-6 levels using an IL-6-specific ELISA by a modification of the method of Starnes et al., J. Immunol. 145:4185-4194 (1990), which is incorporated herein by reference.\nThe mean (±SEM) IL-6 level in six mice from each group was determined and the percent reduction in IL-6 was calculated."}, "[1]": {"system": "inducible nitric oxide synthase (INOS)", "test": "Inducible nitric oxide synthase induction in rat aorta smooth muscle cells (cGMP RIA)", "type": "cell-based", "settings": "RASMC induced with LPS, IL-1β or TNF-α; EX-2 0.1 or 1 μM", "procedure": "Rat aorta smooth muscle cells (RASMC) were isolated from male rats (325-350 g) using the previously published procedures of Gelsterfer et al., Circ. Res. 62:749-756 (1988), which is incorporated herein by reference. Cells were positively identified as smooth muscle cells by indirect immunofluorescent staining for anti-α-actin, using a mouse anti-α-actin antibody and anti-mouse IgG FITC conjugate. Cells were grown in T-75 tissue culture flasks (Corning Delbelco's Glass, Inc.; Corning, N.Y.) in 50% F12 and 50% Delbelco's Modified Eagle Medium (DMEM) supplemented with 10% bovine serum, 0.2 g/l L-glutamine, penicillin (100 U/ml) and streptomycin (0.1 mg/ml).\nCells between passages 1-5 were pretreated with one of the following: vehicle, LPS (1 μg/ml), IL-1β (10 U/ml), or TNF-α (100 U/ml) for 6 hr. […] Accumulation of cGMP was determined following exposure to 0.3 mM 3-isobutyl-1-methyl xanthine (IBMX) in the presence or absence of 1 mM L-arginine. […] The HCl extract was analyzed for cGMP by RIA and the NaOH-solubilized cell remnants were used for protein determination.\nMale Sprague-Dawley rats were anesthetized with 55 mg/kg pentobarbital IP. […] RASMC were incubated with plasma from control or EX-2-treated animals and the ability of plasma components to inhibit the induction of INOS by LPS or IL-1β was determined as above. […]"}},
  "data": [
    {"substance": "Ac-Nle-Gln-His-(D)Phe-Arg-(D)Trp-Gly-NH2 [EX-2]", "values": [
      {"measurement": "Reduction in TNF levels", "setting": "TNF-α", "value": 50, "unit": "%"},
      {"measurement": "Reduction in IL-6 levels", "setting": "IL-6", "value": 60, "unit": "%"},
      {"measurement": "INOS: cGMP (pmol/100 mg/15 min), % Reduction of induced increase", "setting": "[1]", "value": 60, "unit": "%"}
    ]}
  ]
}
